Where two headings read alike, the source gives them in different places.
Columns and labels:
JAK1 = biological target: T1, JAK1 (Homo sapiens, UniProt P23458); assay: Broad kinase inhibition screen, recombinant kinase; assay type: biochemical; conditions: broad kinase inhibition screens
T1 construct: purchased Thermo Fisher Scientific or Reaction Biology, Inc. (screening service)
From the text: (§1) Data from these screens are available on request.

JAK2 = biological target: T2, JAK2 (Homo sapiens, UniProt O60674); assay: Broad kinase inhibition screen, recombinant kinase; assay type: biochemical; conditions: broad kinase inhibition screens
T2 construct: purchased Thermo Fisher Scientific or Reaction Biology, Inc. (screening service)
T2 sequence (O60674 whole entry): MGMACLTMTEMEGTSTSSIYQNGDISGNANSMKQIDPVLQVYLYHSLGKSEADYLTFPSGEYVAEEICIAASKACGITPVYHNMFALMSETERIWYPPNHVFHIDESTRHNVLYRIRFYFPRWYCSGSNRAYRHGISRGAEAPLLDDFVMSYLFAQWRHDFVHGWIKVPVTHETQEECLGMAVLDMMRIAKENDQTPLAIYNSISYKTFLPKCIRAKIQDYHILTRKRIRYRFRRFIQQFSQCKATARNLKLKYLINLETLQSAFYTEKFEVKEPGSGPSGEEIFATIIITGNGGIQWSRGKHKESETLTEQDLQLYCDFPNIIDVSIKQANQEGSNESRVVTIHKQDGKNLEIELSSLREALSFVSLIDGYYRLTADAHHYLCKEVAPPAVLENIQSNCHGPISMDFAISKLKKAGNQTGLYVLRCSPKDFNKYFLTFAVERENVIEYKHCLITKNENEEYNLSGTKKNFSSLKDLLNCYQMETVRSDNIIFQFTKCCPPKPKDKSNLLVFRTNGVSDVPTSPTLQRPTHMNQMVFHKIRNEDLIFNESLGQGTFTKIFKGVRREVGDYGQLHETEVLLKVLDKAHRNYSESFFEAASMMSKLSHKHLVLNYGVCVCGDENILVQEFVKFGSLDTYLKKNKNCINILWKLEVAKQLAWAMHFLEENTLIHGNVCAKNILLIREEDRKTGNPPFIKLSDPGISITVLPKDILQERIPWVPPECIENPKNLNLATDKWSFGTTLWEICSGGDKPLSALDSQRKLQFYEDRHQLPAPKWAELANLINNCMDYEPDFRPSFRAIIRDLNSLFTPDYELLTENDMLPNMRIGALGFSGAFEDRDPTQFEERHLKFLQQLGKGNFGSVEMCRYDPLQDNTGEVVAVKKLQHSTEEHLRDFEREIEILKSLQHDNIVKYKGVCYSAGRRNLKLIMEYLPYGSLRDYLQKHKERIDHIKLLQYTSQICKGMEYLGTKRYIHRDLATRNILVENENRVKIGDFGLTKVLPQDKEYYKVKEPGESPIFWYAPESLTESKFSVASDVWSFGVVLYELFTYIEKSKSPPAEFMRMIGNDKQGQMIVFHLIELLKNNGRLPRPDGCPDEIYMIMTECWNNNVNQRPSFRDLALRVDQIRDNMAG
From the text: as §1

RSK-2 = biological target: T3, RSK-2 (Homo sapiens, UniProt P51812); assay: Broad kinase inhibition screen, recombinant kinase; assay type: biochemical; conditions: broad kinase inhibition screens
T3 construct: purchased Thermo Fisher Scientific or Reaction Biology, Inc. (screening service)
T3 sequence (P51812 whole entry): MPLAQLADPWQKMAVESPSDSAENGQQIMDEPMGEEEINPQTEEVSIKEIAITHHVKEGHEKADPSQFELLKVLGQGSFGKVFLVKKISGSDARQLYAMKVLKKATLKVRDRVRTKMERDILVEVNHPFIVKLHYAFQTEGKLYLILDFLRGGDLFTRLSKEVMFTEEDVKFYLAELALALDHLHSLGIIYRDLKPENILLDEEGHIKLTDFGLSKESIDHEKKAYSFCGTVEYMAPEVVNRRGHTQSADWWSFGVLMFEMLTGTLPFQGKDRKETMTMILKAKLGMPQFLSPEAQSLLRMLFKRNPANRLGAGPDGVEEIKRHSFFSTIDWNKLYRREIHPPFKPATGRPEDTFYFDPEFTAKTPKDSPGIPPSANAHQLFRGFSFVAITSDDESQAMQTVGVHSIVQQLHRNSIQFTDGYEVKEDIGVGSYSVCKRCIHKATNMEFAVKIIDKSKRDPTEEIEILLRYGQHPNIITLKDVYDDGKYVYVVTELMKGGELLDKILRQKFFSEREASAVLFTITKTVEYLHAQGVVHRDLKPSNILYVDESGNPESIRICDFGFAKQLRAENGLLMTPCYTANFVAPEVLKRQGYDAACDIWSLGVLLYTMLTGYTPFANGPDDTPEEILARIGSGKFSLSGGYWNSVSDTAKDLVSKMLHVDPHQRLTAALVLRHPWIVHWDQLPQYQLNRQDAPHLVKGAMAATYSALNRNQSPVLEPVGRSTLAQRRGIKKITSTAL
From the text: as §1

SYK = biological target: T4, SYK (Homo sapiens, UniProt P43405); assay: Broad kinase inhibition screen, recombinant kinase; assay type: biochemical; conditions: broad kinase inhibition screens
T4 construct: purchased Thermo Fisher Scientific or Reaction Biology, Inc. (screening service)
From the text: as §1

TAK1 = biological target: T5, TAK1 (Homo sapiens, UniProt O43318); assay: Broad kinase inhibition screen, recombinant kinase; assay type: biochemical; conditions: broad kinase inhibition screens
T5 construct: purchased Thermo Fisher Scientific or Reaction Biology, Inc. (screening service)
T5 sequence (O43318 1-303 limits assumed): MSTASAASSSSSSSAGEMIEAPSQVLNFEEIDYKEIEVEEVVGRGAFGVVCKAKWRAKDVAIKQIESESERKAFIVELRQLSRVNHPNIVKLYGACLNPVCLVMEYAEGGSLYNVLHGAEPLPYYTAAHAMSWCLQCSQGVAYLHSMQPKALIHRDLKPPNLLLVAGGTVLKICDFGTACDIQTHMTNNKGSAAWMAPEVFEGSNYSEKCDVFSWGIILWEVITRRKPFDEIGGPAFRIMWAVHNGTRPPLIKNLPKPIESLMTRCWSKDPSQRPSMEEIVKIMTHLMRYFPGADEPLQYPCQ
T5 sequence (Q15750 437-504 partner limits assumed): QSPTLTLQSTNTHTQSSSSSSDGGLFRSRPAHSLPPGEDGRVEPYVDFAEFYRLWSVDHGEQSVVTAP
From the text: as §1

Ba/F3 cells FLT3 D835Y = assay: Growth inhibition of Ba/F3 cells; assay type: cell-based, murine; conditions: Mus musculus
Procedure: (§2) MV-4-11 cells expressing NRAS^G12D were prepared by transduction with a lentiviral vector encoding the NRAS^G12D mutation. Assays using a panel of parental Ba/F3 into which an additional copy of either WT or a mutant form of FLT3 was introduced were performed at Kyinno Biotechnology Co., Ltd. All cell lines were short tandem repeat authenticated at ATCC or at DSMZ when originally obtained, and no further authentication was done after receipt of the cells in the laboratory.
(§3) Assays using Ba/F3 cells expressing WT and mutant forms of FLT3 were performed by Kyinno Biotechnology. The cells were cultured in the medium recommended by the source for each cell line. Growth inhibition assays were performed using either Cell Titer 96 Aqueous One Solution Cell Proliferation assay (Promega, # G3581) or CCK8 (Dojindo, # CK-04). […] IC50 values were determined from growth inhibition curves fitted using GraphPad Prism and a nonlinear regression model with sigmoidal dose response. Unless otherwise indicated, data are presented as mean ± SEM.

[1] = tested on: Ba/F3 cells FLT3 ITD/D835Y; assay: Growth inhibition of Ba/F3 cells; assay type: cell-based, murine; conditions: Mus musculus, BaF3
Procedure: as §2, §3

[2] = tested on: Ba/F3 cells FLT3 ITD/F691L; assay: Growth inhibition of Ba/F3 cells; assay type: cell-based, murine; conditions: Mus musculus, BaF3
Procedure: as §2, §3

Ba/F3 cells FLT3 ITD = assay: Growth inhibition of Ba/F3 cells; assay type: cell-based, murine; conditions: Mus musculus
Procedure: as §2, §3

Ba/F3 cells FLT3 WT = assay: Growth inhibition of Ba/F3 cells; assay type: cell-based, murine
Procedure: as §2, §3

MOLM-14 cells (parental) = assay: Growth inhibition of AML cell line; assay type: cell-based, human; conditions: Homo sapiens, MOLM-14
Procedure: as §2, §3

TUS/R line 1 (MOLM-14) = assay: Growth inhibition of TUS-resistant subline; assay type: cell-based; conditions: Homo sapiens, MOLM-14, read-out: IC50 (nmol/L), Mean ± SEM, TUS/R line 1
TUS/R line 2 (MOLM-14) = assay: Growth inhibition of TUS-resistant subline; assay type: cell-based; conditions: Homo sapiens, MOLM-14, read-out: IC50 (nmol/L), Mean ± SEM, TUS/R line 2
TUS/R line 4 (MOLM-14) = assay: Growth inhibition of TUS-resistant subline; assay type: cell-based, human; conditions: Homo sapiens
TUS/R MOLM-14 cells = assay: Growth inhibition of TUS-resistant sublines versus parental; assay type: cell-based, human; conditions: Homo sapiens, MOLM-14; read-out: IC50, cells with acquired resistance
[3] = tested on: p-JAK1, p-JAK2, p-STAT3, p-STAT5 in MOLM-14 cells cocultured with HS-5 cells; assay: HS-5 stromal coculture Western blot; assay type: cell-based, human; conditions: concentrations <1 μmol/L; MOLM-14 cocultured with HS-5
Procedure: Cells were treated as described in respective Results sections and then lysed with RIPA buffer. Western blot analyses were performed with antibodies capable of detecting both total and phosphorylated forms of each kinase purchased from commercial sources. Information on the antibodies used is provided in the Supplementary Materials section.
HS-5 cells were obtained from ATCC. The HS-5 stromal cells (5 × 10^5 cells/well) were seeded into six-well plates, and 24 hours later, MOLM-14 cells (1 × 10^6 cells/well) were seeded into the same plate and then cultured for 48 hours. Cultures were then exposed to test drugs for 2 hours, harvested, and lysates were prepared for Western blotting. For stimulation studies, MOLM-14 or KG-1a cells were seeded at 5.0 to 6.0 × 10^6 cells/well into six-well plates in 2 mL medium. Cells were stimulated with 500 μg/mL fibrinogen (Sigma-Aldrich, Catalog # F3879) for 1 hour at 37°C. Alternatively, they were treated with 10 μg/mL IgG (Invitrogen, Catalog # 31154) for 10 minutes on ice followed by IgG cross-linking with 1 μg/mL anti–human IgG antibody for 10 minutes on ice. After these incubations, the media were removed and the cells were washed with cold PBS, lysed, and analyzed by Western blotting.

CYP2C9 = CYP2C9 (Homo sapiens, UniProt P11712); assay: CYP inhibition; assay type: in vitro ADME
Chain of CYP2C9 (P11712 whole entry): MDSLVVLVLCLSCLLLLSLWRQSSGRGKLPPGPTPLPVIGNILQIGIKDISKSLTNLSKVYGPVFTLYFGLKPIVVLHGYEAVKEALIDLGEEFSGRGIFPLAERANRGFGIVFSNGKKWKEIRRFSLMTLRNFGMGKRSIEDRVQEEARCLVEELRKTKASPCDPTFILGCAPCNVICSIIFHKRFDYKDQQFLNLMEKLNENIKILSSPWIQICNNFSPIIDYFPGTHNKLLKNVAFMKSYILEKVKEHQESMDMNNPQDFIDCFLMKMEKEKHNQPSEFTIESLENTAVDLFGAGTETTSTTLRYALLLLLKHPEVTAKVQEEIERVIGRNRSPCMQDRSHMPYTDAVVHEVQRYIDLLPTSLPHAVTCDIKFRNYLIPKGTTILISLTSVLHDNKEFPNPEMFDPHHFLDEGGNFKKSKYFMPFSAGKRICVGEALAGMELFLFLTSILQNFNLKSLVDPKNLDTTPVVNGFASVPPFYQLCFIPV

CYP3A = assay: CYP inhibition; assay type: in vitro ADME; conditions: human
[4] = Metabolism by liver microsomes; assay type: in vitro ADME, human
[5] = Repeat daily dose toxicity and safety pharmacology in rats; assay type: in vivo
From the text: (§4) In both species, all adverse events were reversible. There were no alterations in clinical chemistry parameters. Neuropharmacology and respiratory function assessment in rats disclosed no concerns.

[6] = Repeat daily dose toxicity in dogs; assay type: in vivo
From the text: as §4

[7] = Tolerability in orthotopic AML models; assay type: in vivo; conditions: daily dosing at 30 mg/kg, all three orthotopic models
From the text: ; Fig. 3A). The increase in the MOLM-13 model was from 37 to 75 days (P < 0.0001; Fig. 3B) and in the MOLM-14 model, it was from 17 to 65 days (Fig. 3C).

[8] = tested on: MCL1 in parental MOLM-14 cells; assay: Western blot of apoptotic proteins; conditions: 75 nmol/L TUS, 48-hour exposure

T1 sequence (P23458 whole entry): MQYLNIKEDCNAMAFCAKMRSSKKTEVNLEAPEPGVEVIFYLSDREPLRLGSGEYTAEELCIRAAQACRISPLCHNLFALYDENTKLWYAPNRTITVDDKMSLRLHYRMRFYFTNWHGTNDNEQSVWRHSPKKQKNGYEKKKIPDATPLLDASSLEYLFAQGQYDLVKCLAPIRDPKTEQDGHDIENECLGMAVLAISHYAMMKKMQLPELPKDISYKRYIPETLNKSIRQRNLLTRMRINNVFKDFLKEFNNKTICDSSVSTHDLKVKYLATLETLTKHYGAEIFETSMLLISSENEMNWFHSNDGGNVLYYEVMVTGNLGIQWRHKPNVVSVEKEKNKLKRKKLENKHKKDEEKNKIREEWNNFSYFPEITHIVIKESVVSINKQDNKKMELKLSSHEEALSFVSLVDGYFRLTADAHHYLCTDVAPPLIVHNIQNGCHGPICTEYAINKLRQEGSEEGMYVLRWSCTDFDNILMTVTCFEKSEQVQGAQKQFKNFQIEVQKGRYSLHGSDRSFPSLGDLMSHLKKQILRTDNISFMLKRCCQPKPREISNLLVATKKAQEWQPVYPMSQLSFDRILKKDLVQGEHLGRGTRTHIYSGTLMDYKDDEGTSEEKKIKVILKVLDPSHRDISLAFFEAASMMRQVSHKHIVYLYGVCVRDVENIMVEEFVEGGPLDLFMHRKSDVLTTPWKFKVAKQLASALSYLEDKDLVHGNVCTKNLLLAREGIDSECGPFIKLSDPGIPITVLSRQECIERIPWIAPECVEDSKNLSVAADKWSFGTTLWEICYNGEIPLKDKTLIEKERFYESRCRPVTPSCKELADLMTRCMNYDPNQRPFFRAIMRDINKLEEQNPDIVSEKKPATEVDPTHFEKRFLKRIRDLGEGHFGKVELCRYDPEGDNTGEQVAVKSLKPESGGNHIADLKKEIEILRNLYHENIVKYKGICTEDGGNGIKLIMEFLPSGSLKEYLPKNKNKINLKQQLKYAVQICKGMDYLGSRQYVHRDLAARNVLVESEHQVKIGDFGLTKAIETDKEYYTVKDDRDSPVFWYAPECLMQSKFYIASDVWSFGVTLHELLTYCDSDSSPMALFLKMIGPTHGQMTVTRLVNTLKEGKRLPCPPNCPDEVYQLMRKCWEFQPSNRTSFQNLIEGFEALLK

## Cc1ccc2c(-c3nc(Nc4cc(CN5C[C@@H](C)N[C@@H](C)C5)cc(C5CC5)c4)ncc3Cl)c[nH]c2c1 [TUS, Tuspetinib]
JAK1
  IC50: 2.9 nM
JAK2
  IC50: 6.3 nM
RSK-2
  IC50: 9.7 nM
SYK
  IC50: 2.9 nM
TAK1
  IC50: 7 nM
Ba/F3 cells FLT3 D835Y; BaF3, Ba/F3 FLT3 D835Y
  GI50: < 9.1 nM
Ba/F3 cells FLT3 D835Y; BaF3, Ba/F3 FLT3 D835Y, mean ± SD, read-out: GI50
  GI50: 7.3 ± 3.5 nM
[1]
  GI50: 16 nM
[2]
  GI50: 56 nM
Ba/F3 cells FLT3 ITD; BaF3, Ba/F3 FLT3 ITD
  GI50: < 9.1 nM
Ba/F3 cells FLT3 ITD; BaF3, Ba/F3 FLT3 ITD, mean ± SD, read-out: GI50
  GI50: 2.5 ± 0.4 nM
Ba/F3 cells FLT3 WT; Ba/F3 FLT3 WT
  GI50: < 9.1 nM
Ba/F3 cells FLT3 WT; Mus musculus, BaF3, Ba/F3 FLT3 WT, read-out: GI50
  GI50: 9.1 nM
MOLM-14 cells (parental); growth inhibition, three independent experiments, read-out: IC50 (nmol/L), Mean ± SEM, MOLM-14 parental
  IC50: 2.3 ± 0.6 nmol/L
MOLM-14 cells (parental); mean ± SEM (Supplementary Table 6), read-out: GI50 (nM) Parental MOLM-14 (converted)
  GI50: 2.3 ± 0.6 nM
MOLM-14 cells (parental); mean ± SD (Supplementary Table 4), read-out: GI50
  GI50: 2.9 ± 1.2 nM
TUS/R line 1 (MOLM-14)
  IC50: 183 ± 69.5 nmol/L
TUS/R line 2 (MOLM-14)
  IC50: 120 ± 29.4 nmol/L
TUS/R line 4 (MOLM-14); MOLM-14, read-out: GI50 (nM) TUS/R line 4, mean ± SEM (Supplementary Table 6)
  GI50: 144 ± 31 nM
TUS/R line 4 (MOLM-14); MOLM-14, read-out: IC50 (nmol/L), Mean ± SEM, TUS/R line 4
  IC50: 144 ± 31.5 nmol/L
TUS/R MOLM-14 cells
  IC50: 139 ± 38.6 nM
[3]
  inhibition of p-JAK1, p-JAK2, p-STAT3, or p-STAT5: Neither TUS nor gilteritinib inhibited
CYP2C9
  Ki: < 1000 nM
CYP3A
  Ki: < 1000 nM
[4]
  metabolism by human liver microsomes: metabolized by human liver microsomes
[5]
  Neuropharmacology and respiratory function assessment: no concerns
[5]; repeat daily dose up to 4 weeks
  main target organ of toxicity: lymphoid organs
[6]; dogs, repeat daily dose up to 4 weeks
  main toxicity findings: leucocyte depletion, decreased thymus and spleen weights, and tremors
[6]; single dose and 4-week dog toxicology studies
  cardiovascular effects: No treatment-related cardiovascular effects
[7]
  tolerability / weight loss: well tolerated in mice with no significant weight loss
[8]
  reduction of MCL1: 70%
